Reference: patent US11976072B2, “Diacylglycerol kinase modulating compounds” (priority 2021, dated 2024)

Experiments:
human DGKα = human DGKα (Homo sapiens, UniProt P23743); assay: DGKα Biochemical Activity Assay (ADP-Glo); settings: recombinant DGKα 1 nM, 100 μM ATP, 18:1 DAG/POPS/octylglucoside micelles, 1 hour at 25° C.; geometric mean; read-out: HTBS DGKa 1X ATP KM IC50;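 further: luminescent detection of ADP produced as DGKα phosphorylates DAG to phosphatidic acid, IC50 from four-parameter nonlinear curve fit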
Chain of human DGKα (P23743 whole entry): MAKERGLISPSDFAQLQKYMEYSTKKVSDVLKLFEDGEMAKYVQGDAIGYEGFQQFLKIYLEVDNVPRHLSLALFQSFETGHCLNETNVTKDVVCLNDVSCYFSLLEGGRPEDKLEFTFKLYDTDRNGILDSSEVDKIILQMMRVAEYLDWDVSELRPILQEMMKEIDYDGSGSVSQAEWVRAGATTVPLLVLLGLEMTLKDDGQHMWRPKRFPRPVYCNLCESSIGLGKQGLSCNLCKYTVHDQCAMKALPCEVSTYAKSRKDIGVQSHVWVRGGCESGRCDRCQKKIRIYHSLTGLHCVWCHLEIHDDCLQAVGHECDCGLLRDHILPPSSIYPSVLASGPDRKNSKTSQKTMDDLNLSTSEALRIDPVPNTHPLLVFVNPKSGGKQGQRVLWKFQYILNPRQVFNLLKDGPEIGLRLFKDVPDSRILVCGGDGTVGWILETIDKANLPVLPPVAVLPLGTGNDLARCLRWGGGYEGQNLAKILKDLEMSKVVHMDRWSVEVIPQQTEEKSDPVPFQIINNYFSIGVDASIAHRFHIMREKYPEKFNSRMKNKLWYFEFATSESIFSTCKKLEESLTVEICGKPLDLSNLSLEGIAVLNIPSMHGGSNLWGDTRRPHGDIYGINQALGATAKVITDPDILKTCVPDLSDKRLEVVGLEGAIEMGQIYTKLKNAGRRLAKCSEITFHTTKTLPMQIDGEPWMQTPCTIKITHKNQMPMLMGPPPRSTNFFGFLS

[1] = system: Jurkat NFκB-luciferase cells; assay: Jurkat NFκB-Luciferase Assay; format: cell-based; settings: Homo sapiens; Jurkat NFκB-luciferase cells activated with anti-CD3 antibody (OKT3), 2.5 hrs at 37° C.; geometric mean; read-out: DGK NFKb Luciferase EC50
Description: The day after, the excess antibody was washed out five times with 100 ul/well of assay medium (RPMI supplemented with 10% fetal bovine serum) using a Biotek EL406 instrument and leaving 20 ul of residual volume in each well. Jurkat NFκB-luciferase cells (Promega #) were harvested and diluted to 1 million cells/ml in assay medium. […] Thirty microliters of medium containing the Jurkat NFκB-luciferase cells were then dispensed using a Biotek MicroFlo instrument in each well of the compound-containing plate. […] Forty microliters of One-Glo Ex (Promega) was then added to the assay mixture and luciferase activity was read on a Envision plate reader 7 minutes later.

| IC50 (human DGKα) [nM] | EC50 [1] [nM] | SMILES |
| --- | --- | --- |
| 15.1 | 0.897 | Cc1nnc2nc(N3CCCCc4c(C#CC5CC5)cncc43)c3c(F)c(F)ccc3n12 [Example 1, 5-(6-(cyclopropylethynyl)-2,3,4,5-tetrahydro-1H-pyrido[3,4-b]azepin-1-yl)-6,7-difluoro-1-methyl-[1,2,4]triazolo[4,3-a]quinazoline] |
| 14.8 | 3.13 | Cc1nnc2nc(N3CCCCc4c(C#CC(C)(C)C#N)cncc43)c3c(F)c(F)ccc3n12 [Example 2, 4-(1-(6,7-difluoro-1-methyl-[1,2,4]triazolo[4,3-a]quinazolin-5-yl)-2,3,4,5-tetrahydro-1H-pyrido[3,4-b]azepin-6-yl)-2,2-dimethylbut-3-ynenitrile] |
| 35.9 | 1.86 | Cc1nnc2nc(N3CCCCc4c(C#CC5(C(F)(F)F)CC5)cncc43)c3cc(F)ccc3n12 [Example 3, 7-fluoro-1-methyl-5-(6-((1-(trifluoromethyl)cyclopropyl)ethynyl)-2,3,4,5-tetrahydro-1H-pyrido[3,4-b]azepin-1-yl)-[1,2,4]triazolo[4,3-a]quinazoline] |
| 23.9 | 6.92 | Cc1nnc2nc(N3CCCCc4c(C#CC(C)(C)C#N)cncc43)c3cc(F)ccc3n12 [Example 4, 4-(1-(7-fluoro-1-methyl-[1,2,4]triazolo[4,3-a]quinazolin-5-yl)-2,3,4,5-tetrahydro-1H-pyrido[3,4-b]azepin-6-yl)-2,2-dimethylbut-3-ynenitrile] |
| 14.5 | 1.19 | Cc1nnc2nc(N3CCCCc4c(C#CC5(C)CC5)cncc43)c3cc(F)ccc3n12 [Example 5, 7-fluoro-1-methyl-5-(6-((1-methylcyclopropyl)ethynyl)-2,3,4,5-tetrahydro-1H-pyrido[3,4-b]azepin-1-yl)-[1,2,4]triazolo[4,3-a]quinazoline] |
| 44.1 | 0.692 | Cc1nnc2nc(N3CCCCc4c(C#CC5(C)CC5)cncc43)c3c(F)cccc3n12 [Example 6, 6-fluoro-1-methyl-5-(6-((1-methylcyclopropyl)ethynyl)-2,3,4,5-tetrahydro-1H-pyrido[3,4-b]azepin-1-yl)-[1,2,4]triazolo[4,3-a]quinazoline] |
| 23.1 | 0.747 | Cc1nnc2nc(N3CCCCc4c(C#CC5(C)CC5)cncc43)c3c(F)c(F)ccc3n12 [Example 7, 6,7-difluoro-1-methyl-5-(6-((1-methylcyclopropyl)ethynyl)-2,3,4,5-tetrahydro-1H-pyrido[3,4-b]azepin-1-yl)-[1,2,4]triazolo[4,3-a]quinazoline] |
| 17.7 | 1.65 | Cc1nnc2nc(N3CCCCc4c(C#CC5(C(F)F)CC5)cncc43)c3c(F)c(F)ccc3n12 [Example 8, 5-(6-((1-(difluoromethyl)cyclopropyl)ethynyl)-2,3,4,5-tetrahydro-1H-pyrido[3,4-b]azepin-1-yl)-6,7-difluoro-1-methyl-[1,2,4]triazolo[4,3-a]quinazoline] |
| 28.5 | 1.53 | Cc1nnc2nc(N3CCCCc4c(C#CC5(C(F)(F)F)CC5)cncc43)c3c(F)c(F)ccc3n12 [Example 9, 6,7-difluoro-1-methyl-5-(6-((1-(trifluoromethyl)cyclopropyl)ethynyl)-2,3,4,5-tetrahydro-1H-pyrido[3,4-b]azepin-1-yl)-[1,2,4]triazolo[4,3-a]quinazoline] |
| 17.2 | 5.87 | Cc1nnc2nc(N3CCCc4c(C#CC(C)(C)C#N)cncc43)c3c(F)c(F)ccc3n12 [Example 10, 4-(1-(6,7-difluoro-1-methyl-[1,2,4]triazolo[4,3-a]quinazolin-5-yl)-1,2,3,4-tetrahydro-1,7-naphthyridin-5-yl)-2,2-dimethylbut-3-ynenitrile] |
| 13.9 | 5.77 | Cc1nnc2nc(N3CCCc4c(C#CC5(C(F)F)CC5)cncc43)c3c(F)c(F)ccc3n12 [Example 11, 5-(5-((1-(difluoromethyl)cyclopropyl)ethynyl)-3,4-dihydro-1,7-naphthyridin-1(2H)-yl)-6,7-difluoro-1-methyl-[1,2,4]triazolo[4,3-a]quinazoline] |
| 37.3 | 1.85 | Cc1nnc2nc(N3CCCc4c(C#CC5(C(C)(F)F)CC5)cncc43)c3c(F)c(F)ccc3n12 [Example 12, 5-(5-((1-(1,1-difluoroethyl)cyclopropyl)ethynyl)-3,4-dihydro-1,7-naphthyridin-1(2H)-yl)-6,7-difluoro-1-methyl-[1,2,4]triazolo[4,3-a]quinazoline] |
| 7.93 | 1.01 | Fc1ccc2c(c(N3CCCc4c(C#CC5CCC5)cncc43)nc3nncn32)c1F [Example 13, 5-(5-(cyclobutylethynyl)-3,4-dihydro-1,7-naphthyridin-1(2H)-yl)-6,7-difluoro-[1,2,4]triazolo[4,3-a]quinazoline] |
| 8.19 | 1.4 | Fc1ccc2c(c(N3CCCc4c(C#CC5CC(F)(F)C5)cncc43)nc3nncn32)c1F [Example 14, 5-(5-((3,3-difluorocyclobutyl)ethynyl)-3,4-dihydro-1,7-naphthyridin-1(2H)-yl)-6,7-difluoro-[1,2,4]triazolo[4,3-a]quinazoline] |
| 7.16 | 1.91 | Fc1ccc2c(c(N3CCCc4c(C#CC5(C(F)F)CC5)cncc43)nc3nncn32)c1F [Example 15, 5-(5-((1-(difluoromethyl)cyclopropyl)ethynyl)-3,4-dihydro-1,7-naphthyridin-1(2H)-yl)-6,7-difluoro-[1,2,4]triazolo[4,3-a]quinazoline] |
| 22.7 | 1.54 | CC(F)(F)C1(C#Cc2cncc3c2CCCN3c2nc3nncn3c3ccc(F)c(F)c23)CC1 [Example 16, 5-(5-((1-(1,1-difluoroethyl)cyclopropyl)ethynyl)-3,4-dihydro-1,7-naphthyridin-1(2H)-yl)-6,7-difluoro-[1,2,4]triazolo[4,3-a]quinazoline] |
| 14.7 | 1.16 | Fc1cccc2c1c(N1CCCc3c(C#CC4CC(F)(F)C4)cncc31)nc1nncn12 [Example 17, 5-(5-((3,3-difluorocyclobutyl)ethynyl)-3,4-dihydro-1,7-naphthyridin-1(2H)-yl)-6-fluoro-[1,2,4]triazolo[4,3-a]quinazoline] |
| 14.2 | 1.5 | Fc1cccc2c1c(N1CCCc3c(C#CC4CCC4)cncc31)nc1nncn12 [Example 18, 5-(5-(cyclobutylethynyl)-3,4-dihydro-1,7-naphthyridin-1(2H)-yl)-6-fluoro-[1,2,4]triazolo[4,3-a]quinazoline] |
| 21.3 | 1.53 | Fc1cccc2c1c(N1CCCc3c(C#CC4(C(F)F)CC4)cncc31)nc1nncn12 [Example 19, 5-(5-((1-(difluoromethyl)cyclopropyl)ethynyl)-3,4-dihydro-1,7-naphthyridin-1(2H)-yl)-6-fluoro-[1,2,4]triazolo[4,3-a]quinazoline] |
| 30.1 | 10.3 | Cc1nnc2nc(N(CC(F)F)c3cc(F)cc(C#CC4CCOCC4)c3)c3c(F)cccc3n12 [Example 20, N-(2,2-difluoroethyl)-6-fluoro-N-(3-fluoro-5-((tetrahydro-2H-pyran-4-yl)ethynyl)phenyl)-1-methyl-[1,2,4]triazolo[4,3-a]quinazolin-5-amine] |
| 21 | 9.42 | Cc1nnc2nc(N(CC(F)F)c3cc(F)cc(C#CC4(O)CCC4)c3)c3c(F)cccc3n12 [Example 21, 1-((3-((2,2-difluoroethyl)(6-fluoro-1-methyl-[1,2,4]triazolo[4,3-a]quinazolin-5-yl)amino)-5-fluorophenyl)ethynyl)cyclobutan-1-ol] |
| 18.9 | 10.1 | Cc1nnc2nc(N(CC(F)F)c3cc(F)cc(C#CC4(C)COC4)c3)c3c(F)cccc3n12 [Example 22, N-(2,2-difluoroethyl)-6-fluoro-N-(3-fluoro-5-((3-methyloxetan-3-yl)ethynyl)phenyl)-1-methyl-[1,2,4]triazolo[4,3-a]quinazolin-5-amine] |
| 33.9 | 3.46 | Cc1nnc2nc(N(CC(F)F)c3cc(F)cc(C#CC4COC4)c3)c3c(F)cccc3n12 [Example 23, N-(2,2-difluoroethyl)-6-fluoro-N-(3-fluoro-5-(oxetan-3-ylethynyl)phenyl)-1-methyl-[1,2,4]triazolo[4,3-a]quinazolin-5-amine] |
| 15.1 | 4.7 | Cc1nnc2nc(N(CC(F)F)c3cc(F)cc(C#CC4(C)COC4)c3)c3cc(F)ccc3n12 [Example 24, N-(2,2-difluoroethyl)-7-fluoro-N-(3-fluoro-5-((3-methyloxetan-3-yl)ethynyl)phenyl)-1-methyl-[1,2,4]triazolo[4,3-a]quinazolin-5-amine] |
| 30.2 | 7.37 | Cc1nnc2nc(N(CC(F)F)c3cc(F)cc(C#CC4(C(F)F)CC4)c3)c3c(F)cccc3n12 [Example 25, N-(2,2-difluoroethyl)-N-(3-((1-(difluoromethyl)cyclopropyl)ethynyl)-5-fluorophenyl)-6-fluoro-1-methyl-[1,2,4]triazolo[4,3-a]quinazolin-5-amine] |
| 22.5 | 2.46 | Cc1nnc2nc(N3CCCc4c(C#CC5CCOCC5)cccc43)c3c(F)cccc3n12 [Example 26, 6-fluoro-1-methyl-5-(5-((tetrahydro-2H-pyran-4-yl)ethynyl)-3,4-dihydroquinolin-1(2H)-yl)-[1,2,4]triazolo[4,3-a]quinazoline] |
| 15.1 | 3.52 | Cc1nnc2nc(N3CCCc4c(C#CC5(C)COC5)cccc43)c3c(F)cccc3n12 [Example 27, 6-fluoro-1-methyl-5-(5-((3-methyloxetan-3-yl)ethynyl)-3,4-dihydroquinolin-1(2H)-yl)-[1,2,4]triazolo[4,3-a]quinazoline] |
